Measured values from US20250032388A1, “PERSONAL CARE COMPOSITIONS FOR SENSITIVE SKIN AND METHODS OF USE” (Galderma Holding SA, priority 2022, published 2025).

System: NADPH oxidase
Test: NADPH-oxidase activity in pollution-exposed fibroblasts (Example 6)
Type: cell-based, human
Protocol: Method: Cells are incubated for 30 minutes with the test elements (either pollutant or Composition A). NADPH oxidase activity is determined immediately using chemioluminescence. Conditions: Untreated and unexposed to pollution, Untreated and exposed to pollution and Treated with personal care composition and exposed to pollution. As a comparison to the personal care composition, niacinamide was tested at low concentration (“niacinamide (low)”) and high concentration (“niacinamide (high)”) in DMSO. (The high niacinamide concentration was 6.67 times the low niacinamide concentration.) Composition B was diluted until its niacinamide concentration was the same as the niacinamide (low) concentration. The cells used in the study were human primary fibroblasts originating from a healthy donor. As in Example 5, the pollutant was urban standardized particles composed with metals, polyaromatic hydrocarbons (PAHs), nitro-PAHs, PCBs, chlorinated pesticide, etc., of micrometric diameter. NADPH-oxidase activity and mitochondrial associated membranes (MAMs) were experimentally determined and quantified in the same manner as in Example 5.

niacinamide
NADPH oxidase activity relative to NE-NTC (niacinamide (high) concentration, 6.67 times the low): level below that observed in NE-NTC | NADPH oxidase activity relative to NE-NTC (niacinamide (low) concentration, Composition B diluted to the same niacinamide concentration): level similar to that observed in the NE-NTC
